{"source": "patent US20040235785A1", "about": "“Potentiator of antitumoral agents in the treatment of cancer” (priority 2001, published 2004)", "key": {"normal human fibroblasts": {"tested_on": "normal human fibroblasts", "experiment": "Maximal tolerated dose in vitro (resazurin reduction test), human fibroblast", "type": "cell-based", "settings": "48 h", "source_text": "(§1) The human cell lines breast cancer adenocarcinoma MCF-7, prostatic adenocarcinoma PC-3, lung carcinoma A-549 and colon adenocarcinoma DLD-1 together with the mouse cell line L-929 (fibrobast) were obtained from the European Collection of Cell Cultures (ECACC, Salisbury, United Kingdom). Normal human fibroblasts were purchased from Biopredic International (Rennes, France). The M4BEU human melanoma cell line was generously supplied by Dr. J F Doré (Institut National de la Santé et de la Recherche Médicale-INSERM, Unit 218, Lyon, France). All the cell lines were grown in minimum essential medium with Earle's salts (Gibco-BRL, Paisley, Scotland) supplemented with 10% fetal calf serum (Sigma-Aldrich), 1×solution of vitamins (Gibco-BRL), 1 mM sodium pyruvate (Gibco-BRL), 1×non-essential amino acids (Gibco-BRL) and 2 mg of gentamicin base (Gibco-BRL). Cells were cultured in a humidified atmosphere at 37° C. in 5% CO2."}, "[1]": {"tested_on": "A-549 human lung carcinoma cell line", "experiment": "Maximal tolerated dose in vitro (resazurin reduction test), A-549", "type": "cell-based", "settings": "A-549, 48 h", "source_text": "as §1"}, "[2]": {"tested_on": "L-929 mouse subcutaneous connective tissue cell line", "experiment": "Maximal tolerated dose in vitro (resazurin reduction test), L-929", "type": "cell-based", "settings": "L-929, 48 h", "source_text": "as §1"}, "[3]": {"tested_on": "DLD-1 human colon adenocarcinoma cell line", "experiment": "Maximal tolerated dose in vitro (resazurin reduction test), DLD-1", "type": "cell-based", "settings": "DLD-1, 48 h", "source_text": "as §1"}, "[4]": {"tested_on": "M4BEU human melanoma cell line", "experiment": "Maximal tolerated dose in vitro (resazurin reduction test), M4BEU", "type": "cell-based", "settings": "48 h", "source_text": "as §1"}, "[5]": {"tested_on": "PC-3 human prostatic adenocarcinoma cell line", "experiment": "Maximal tolerated dose in vitro (resazurin reduction test), PC-3", "type": "cell-based", "settings": "PC-3, 48 h", "source_text": "as §1"}, "[6]": {"tested_on": "normal and cancerous cell lines", "experiment": "In vitro toxicity / MTD, stated overall for the cell lines tested", "type": "cell-based", "procedure": "The screening of terpene potentiators in accordance with the present invention is carried out by the evaluation of several parameters including: i) the cytotoxicity (maximal tolerated dose); and iii) the effect on the intracellular glutathione content; and iv) the synergism in combination with antitumor agents. Briefly, the cytotoxicity or the cell growth inhibition induced by the terpenes is evaluated on various cell lines in order to determine the maximal tolerated dose (MTD) or non-toxic dose. […] The cell growth is measured by the fluorescence induced by the metabolic transformation of resazurin™ in resorufin™, which is proportional to living cells (see materials and methods). […] Moreover, β-caryophyllene is not toxic in mice at >500 mg/kg. It is shown herein that β-caryophyllene is having a synergistic action on the treatment of cancer when used in combination with antitumoral agents such as paclitaxel. To assess the synergistic effect of terpenes such as β-caryophyllene, the cancer cells are treated with growing concentrations of antitumoral agents (paclitaxel) with or without terpene (β-caryophyllene).\nThe in vitro toxicity of β-caryophyllene has been evaluated from 5 cell lines: human adenocarcinoma, MCF-7; human prostatic adenocarcinoma, PC-3; human lung carcinoma, A-549 and human colon adenocarcinoma, DLD-1 and from human and mouse fibroblasts.\nCell survival has been evaluated after receiving an increasing dose of β-caryophyllene between 6.25 and 800 µM. It is shown in table I that β-caryophyllene is not toxic in vitro in a dose less than […]."}, "MCF-7 cells": {"tested_on": "MCF-7 cells", "experiment": "Synergistic effect in combination with paclitaxel, MCF-7", "type": "cell-based, human", "settings": "MCF-7, β-caryophyllene combined with paclitaxel", "quoted_text": "The resazurin reduction test (RRT) was carried out according to the protocol as described by O'Brien et al. Briefly, plates were rinsed by 200 μl PBS (37° C., Gibco) at 37° C. using an automatic microplate washer (Cell Wash™, Labsystems, Helsinki, Finland) and emptied by overturning on absorbent toweling. Then, 150 μl of a 25μg/ml solution of resazurin in MEM without Phenol red was added in each well using an automatic microvolume dispenser (Multidrop 384™ Labsystems). The plates were incubated 1 h at 37° C. in a humidified atmosphere with 5% of CO2 for fluorescence development by living cells. Fluorescence was then measured on the automated 96-well plate reader Fluoroskan Ascent FL™ (Labsystems) using an excitation wavelength of 530 nm and an emission one of 590 nm. The fluorescence is proportional to the number of living cells in the well.\nBriefly, the cells were plated at a density of 5×10^3 cells per well in 96-well microplates (Nunclon™, Nunc) in 100 μl of culture medium and were allowed to adhere for 16 h before treatment. […] The proliferation of tumour cells was assessed using resazurin reduction test as described above. The synergistic effect of β-caryophyllene was determined by the comparison between the percentage of cells growth inhibition induced by the paclitaxel used alone and the one induced by the combination of paclitaxel and β-caryophyllene."}, "[7]": {"settings": "studies performed by the National Cancer Institute; cited from earlier work"}, "[8]": {"tested_on": "MCF-7 human breast adenocarcinoma cell line", "experiment": "Maximal tolerated dose in vitro (resazurin reduction test), MCF-7", "type": "cell-based", "settings": "MCF-7, 48 h", "source_text": "as §1"}}}
{"smiles": "C=C1CC/C=C(\\C)CC[C@@H]2[C@@H]1CC2(C)C", "note": "[β-caryophyllene]", "values": [{"measurement": "MTD (maximal tolerated dose or maximal no toxic dose)", "setting": "normal human fibroblasts", "result": ">800", "unit": "µM"}, {"measurement": "MTD (maximal tolerated dose or maximal no toxic dose)", "setting": "[1]", "result": ">800", "unit": "µM"}, {"measurement": "MTD (maximal tolerated dose or maximal no toxic dose)", "setting": "[2]", "result": ">800", "unit": "µM"}, {"measurement": "MTD (maximal tolerated dose or maximal no toxic dose)", "setting": "[3]", "result": ">800", "unit": "µM"}, {"measurement": "MTD (maximal tolerated dose or maximal no toxic dose)", "setting": "[4]", "result": ">800", "unit": "µM"}, {"measurement": "MTD (maximal tolerated dose or maximal no toxic dose)", "setting": "[5]", "result": ">800", "unit": "µM"}, {"measurement": "cytotoxicity against normal and cancerous cell lines tested in vitro", "setting": "[6]", "result": "does not induce cytotoxicity"}, {"measurement": "in vitro toxicity (cell survival)", "setting": "[6]; dose less than 800, doses tested between 6.25 and 800", "result": "not toxic"}, {"measurement": "MTD (higher concentration that does not induce cell growth inhibition)", "setting": "[6]; various cell lines, stated overall", "result": "greater than 800 μM"}, {"measurement": "increase of cell growth inhibition induced by paclitaxel", "setting": "MCF-7 cells", "result": "about 40%"}, {"measurement": "mutagenicity", "setting": "[7]", "result": "not mutagenic"}, {"measurement": "MTD (maximal tolerated dose or maximal no toxic dose)", "setting": "[8]", "result": ">800", "unit": "µM"}]}
